Read-outs that look alike come from different tables or passages of the source.
How the values were obtained:
pH solubility profile = assay type: physicochemical; conditions: 25 °C, thermodynamic from solid
in vivo [1] = test: in vivo; parameters: species or system female Beagle dogs; conditions: dog
Method: For comparison, an IV formulation was also tested. Table 18 summarizes the results of the experiments of administration of the various oral formulations to female beagle dogs.

[2] = Phase 1 study in healthy human volunteers, plasma pharmacokinetics; assay type: in vivo; conditions: for AUC(0-t): read-out: AUC0-24 (hr * mM) AVE ± SD; for Tmax: read-out: Tmax (hr) AVE ± SD; for half-life: read-out: t1/2 (hr) AVE ± SD (converted)
Method: The study is divided into two phases (Single and Multiple Dose Phases).
One cohort in the Multiple Dose Phase receives twice daily dosing.
Placebo solution to match. The finished aqueous solution is prepared in the clinical study site pharmacy within 24 hours of dosing. The study drug is stored at room temperature between 15-30° C. (59-86° F.) and protected from light.
Route of Administration: All doses are administered orally with approximately 100 mL of water rinse. Subjects are fasted for at least 8 hours prior to dosing and for 2 hours after dosing.
Obtain pre-dose fasting blood samples for hematology determinations. Obtain pre-dose fasting blood samples for serum chemistry determinations. Obtain pre-dose blood samples (5 mL EDTA and 4 mL heparinized) for baseline PK and LTB4. Collect ‘spot’ urine prior to study drug administration for baseline (pre-dose) LTE4. Administer study drug. […] Collect blood samples (2 mL heparinized) for LTB4 at 0.5, 1, 2, 3, 4, 6, 8, and 12 hours. Collect urine for LTE4 for the following separate intervals: 0-3, 3-6, 6-9, and 9-12 hours. For twice daily dosing group (if conducted): administer study drug 12 hours±30 minutes after prior dose, preceded by ≧2 hours fast. […]

[3] = system: whole blood ionophore-stimulated leukotriene LTB4; test: Phase 1 study, whole blood ionophore-stimulated LTB4; assay type: in vivo, human
Method: Pharmacodynamics: Whole blood ionophore-stimulated leukotriene LTB4 and urinary LTE4 production are assayed by ELISA and mass spectrometry, respectively.
Obtain pre-dose fasting blood samples for hematology determinations. Obtain pre-dose fasting blood samples for serum chemistry determinations. Obtain pre-dose blood samples (5 mL EDTA and 4 mL heparinized) for baseline PK and LTB4. Collect ‘spot’ urine prior to study drug administration for baseline (pre-dose) LTE4. Administer study drug. […] Collect blood samples (2 mL heparinized) for LTB4 at 0.5, 1, 2, 3, 4, 6, 8, and 12 hours. Collect urine for LTE4 for the following separate intervals: 0-3, 3-6, 6-9, and 9-12 hours. For twice daily dosing group (if conducted): administer study drug 12 hours±30 minutes after prior dose, preceded by ≧2 hours fast.
Obtain pre-dose fasting blood samples for hematology determinations. Obtain pre-dose fasting blood samples for serum chemistry determinations. […] Collect blood samples (2 mL heparinized) for LTB4 at 24 hours after the first study drug administration; 4 mL blood will be collected at this time point in the Single Dose Phase. Collect ‘spot’ urine sample for LTE4 at 24 and 36 hours after first study drug administration.
Obtain pre-dose blood samples (5 mL EDTA and 2 mL heparinized) for PK and LTB4. Collect pre-dose urine for LTE4. Administer study drug (last dose of drug). […] Collect blood samples (2 mL heparinized) for LTB4 at 0.5, 1, 2, 3, 4, 6, 8, and 12 hours. Collect urine for LTE4 for the following separate intervals: 0-3, 3-6, 6-9, and 9-12 hours after study drug administration.
Record vital signs 24 hours after Day 11 study drug administration. […] Collect blood sample (4 mL heparinized) for LTB4 at 24 hours after Day 11 study drug administration. Collect ‘spot’ urine sample for LTE4 at 24 hours after Day 11 study drug administration.
Whole blood ionophore-stimulated leukotriene LTB4 and urinary LTE4 production were assayed by ELISA and mass spectrometry, respectively.

[4] = in vivo, po, 250 mg/kg
Method: Twenty-four hours following the final administration mice were placed into an enclosed Plexiglas chamber and exposed to CO2 for a period of 1-2 minutes or until breathing ceased. They were then removed and blood was taken via a cardiac puncture and cervical dislocation was performed. Subjects were next placed in a supine position and a midline incision made. All organs were inspected and the livers removed by careful dissection. Liver weights were recorded as well as any gross abnormalities.

in vivo [5] = conditions: male, Sprague-Dawley, rat, po
CYP3A4 = CYP3A4 (Homo sapiens, UniProt P08684); test: biochemical
Chain of CYP3A4 (P08684 whole entry): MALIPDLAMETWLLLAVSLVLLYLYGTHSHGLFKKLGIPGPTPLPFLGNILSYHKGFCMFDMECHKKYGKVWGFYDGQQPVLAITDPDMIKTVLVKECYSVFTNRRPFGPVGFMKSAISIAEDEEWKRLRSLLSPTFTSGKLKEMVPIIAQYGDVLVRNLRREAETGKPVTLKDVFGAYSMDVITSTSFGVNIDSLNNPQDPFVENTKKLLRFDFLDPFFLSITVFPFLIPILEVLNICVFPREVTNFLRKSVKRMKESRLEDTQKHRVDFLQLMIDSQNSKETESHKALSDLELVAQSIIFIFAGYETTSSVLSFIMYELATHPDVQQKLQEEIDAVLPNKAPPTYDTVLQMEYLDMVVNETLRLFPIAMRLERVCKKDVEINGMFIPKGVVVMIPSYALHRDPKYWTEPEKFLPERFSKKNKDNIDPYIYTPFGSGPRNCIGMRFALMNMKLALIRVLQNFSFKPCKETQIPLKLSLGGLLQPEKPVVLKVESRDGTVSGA

CYP2C19 = CYP2C19 (Homo sapiens, UniProt P33261); test: biochemical
Chain of CYP2C19 (P33261 whole entry): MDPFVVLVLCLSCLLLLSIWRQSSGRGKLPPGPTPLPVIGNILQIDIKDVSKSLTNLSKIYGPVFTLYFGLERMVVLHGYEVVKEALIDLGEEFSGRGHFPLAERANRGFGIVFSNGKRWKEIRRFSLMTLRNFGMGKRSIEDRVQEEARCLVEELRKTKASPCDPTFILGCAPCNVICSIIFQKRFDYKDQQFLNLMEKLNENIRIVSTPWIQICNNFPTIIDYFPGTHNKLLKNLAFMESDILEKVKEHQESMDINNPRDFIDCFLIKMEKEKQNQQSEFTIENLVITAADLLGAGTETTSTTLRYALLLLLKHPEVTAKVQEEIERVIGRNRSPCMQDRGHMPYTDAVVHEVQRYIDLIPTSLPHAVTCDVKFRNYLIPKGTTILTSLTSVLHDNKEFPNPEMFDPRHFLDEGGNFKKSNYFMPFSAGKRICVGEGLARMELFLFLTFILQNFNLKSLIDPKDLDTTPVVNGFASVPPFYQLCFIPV

CYP2D6 = CYP2D6 (Homo sapiens, UniProt P10635); test: biochemical
Chain of CYP2D6 (P10635 whole entry): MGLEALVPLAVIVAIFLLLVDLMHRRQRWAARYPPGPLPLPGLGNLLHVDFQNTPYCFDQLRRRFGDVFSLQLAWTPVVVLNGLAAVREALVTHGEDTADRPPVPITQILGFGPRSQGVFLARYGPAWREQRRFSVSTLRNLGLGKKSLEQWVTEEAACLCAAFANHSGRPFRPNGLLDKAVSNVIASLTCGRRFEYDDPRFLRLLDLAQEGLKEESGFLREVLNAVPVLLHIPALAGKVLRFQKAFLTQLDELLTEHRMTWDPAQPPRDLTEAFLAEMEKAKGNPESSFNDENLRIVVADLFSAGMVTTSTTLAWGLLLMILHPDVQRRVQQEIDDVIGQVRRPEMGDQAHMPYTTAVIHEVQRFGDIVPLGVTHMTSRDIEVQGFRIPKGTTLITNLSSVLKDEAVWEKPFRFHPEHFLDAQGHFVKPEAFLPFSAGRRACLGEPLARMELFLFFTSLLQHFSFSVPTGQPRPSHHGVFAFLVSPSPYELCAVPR

[6] = both sexes, human, single dose 50 mg, oral solution, fasted healthy subjects
[7] = both sexes, human, single dose 150 mg, oral solution, fasted healthy subjects
[8] = both sexes, human, single dose 300 mg, oral solution, fasted healthy subjects
[9] = both sexes, human, single dose 600 mg, oral solution, fasted healthy subjects
[10] = both sexes, human, single dose 1000 mg, oral solution, fasted healthy subjects
[11] = male, human, multiple dose phase, Day 1, 150 mg, oral solution
[12] = male, human, multiple dose phase, Day 1, 450 mg, oral solution
[13] = male, human, multiple dose phase, Day 1, 1000 mg, oral solution

Q: Which results are given for COc1ccc(-c2ccc(Cn3c(CC(C)(C)C(=O)O)c(SC(C)(C)C)c4cc(OCc5ccccn5)ccc43)cc2)cn1 [sodium 3-[5-(pyridin-2-ylmethoxy)-3-(2-methyl-2-propylthio)-1-[4-(2-methoxypyridin-5-yl)benzyl]-indol-2-yl]-2,2-dimethyl-propionate]?
A: solubility (pH solubility profile; aqueous medium, aqueous buffer, about pH 7, read-out: aqueous solubility): < 0.005 mg/mL; solubility (pH solubility profile; basic media, pH 10, aqueous buffer, read-out: solubility in basic media): > 70 mg/mL; AUCdose-adjusted (in vivo [1]; iv, 2 mg/kg): 6.0; AUC(0-inf) (in vivo [1]; female, Beagle, iv, 2 mg/kg): 11900 ng·h/mL; CLp (in vivo [1]; female, Beagle, iv, 2 mg/kg): 2.9 mL/min/kg; Cmax (in vivo [1]; female, Beagle, iv, 2 mg/kg): 3200 ng/mL; Tmax (in vivo [1]; female, Beagle, iv, 2 mg/kg): 0.017 h; Vd (in vivo [1]; female, Beagle, iv, 2 mg/kg): 0.4 L/kg; bioavailability (in vivo [1]; female, Beagle, iv, 2 mg/kg): 100%; half-life (in vivo [1]; female, Beagle, iv, 2 mg/kg): 7.7 h; Tmax (in vivo [1]; female, Beagle, po, 5 mg/kg): 1.7 h; AUC(0-t) [2, 6]: 5.4 ± 2.5 µM·h; Cmax ([2]; both sexes, human, single dose 50 mg, oral solution, fasted healthy subjects, read-out: Cmax (mM) AVE ± SD): 0.00065 ± 0.00032 mM; Tmax [2, 6]: 3 ± 0.8 h; half-life [2, 6]: 7.7 ± 0.3 h; AUC(0-t) [2, 7]: 15.9 ± 8.7 µM·h; Cmax ([2]; both sexes, human, single dose 150 mg, oral solution, fasted healthy subjects, read-out: Cmax (mM) AVE ± SD): 0.0018 ± 0.0011 mM; Tmax [2, 7]: 2.5 ± 0.5 h; half-life [2, 7]: 10 ± 2 h; AUC(0-t) [2, 8]: 25.8 ± 7.4 µM·h; Cmax ([2]; both sexes, human, single dose 300 mg, oral solution, fasted healthy subjects, read-out: Cmax (mM) AVE ± SD): 0.0031 ± 0.0014 mM; Tmax [2, 8]: 3.2 ± 1 h; half-life [2, 8]: 12.3 ± 3.1 h; AUC(0-t) [2, 9]: 54 ± 35.3 µM·h; Cmax ([2]; both sexes, human, single dose 600 mg, oral solution, fasted healthy subjects, read-out: Cmax (mM) AVE ± SD): 0.0081 ± 0.0053 mM; Tmax [2, 9]: 2 ± 0.6 h; half-life [2, 9]: 8.8 ± 1.3 h; AUC(0-t) [2, 10]: 85 ± 44 µM·h; Cmax ([2]; both sexes, human, single dose 1000 mg, oral solution, fasted healthy subjects, read-out: Cmax (mM) AVE ± SD): 0.013 ± 0.005 mM; Tmax [2, 10]: 3 ± 0.8 h; half-life [2, 10]: 7.6 ± 4.6 h; Cmax ([2]; both sexes, oral, profile that may be obtained from a single dose administration to a human, dose not stated, read-out: Cmax): ≤ 0.005 mM; AUC(0-t) [2, 11]: 11.3 ± 5 µM·h; Cmax ([2]; male, human, multiple dose phase, Day 1, 150 mg, oral solution, read-out: Cmax (mM) AVE ± SD): 0.0019 ± 0.0011 mM; Tmax [2, 11]: 2.5 ± 0.5 h; half-life [2, 11]: 9.2 ± 2 h; AUC(0-t) [2, 12]: 34.2 ± 7.9 µM·h; Cmax ([2]; male, human, multiple dose phase, Day 1, 450 mg, oral solution, read-out: Cmax (mM) AVE ± SD): 0.0047 ± 0.0022 mM; Tmax [2, 12]: 2.7 ± 0.5 h; half-life [2, 12]: 13.2 ± 3.9 h; AUC(0-t) [2, 13]: 127 ± 50 µM·h; Cmax ([2]; male, human, multiple dose phase, Day 1, 1000 mg, oral solution, read-out: Cmax (mM) AVE ± SD): 0.0144 ± 0.0051 mM; Tmax [2, 13]: 2.3 ± 0.5 h; half-life [2, 13]: 11.2 ± 5.1 h; LTB4 level at t = 24 hrs. (% of baseline) ([3]; multiple dose, 450 mg daily, Day 1): 24 ± 6.7 % of baseline; LTB4 level at t = 24 hrs. (% of baseline) ([3]; multiple dose, 450 mg daily, Day 11): 26 ± 7.4 % of baseline; LTB4 level at t = 24 hrs. (% of baseline) ([3]; multiple dose, 1000 mg daily, Day 1): 2.7 ± 1.1 % of baseline; LTB4 level at t = 24 hrs. (% of baseline) ([3]; multiple dose, 1000 mg daily, Day 11): 1.0 ± 0.6 % of baseline; LTB4 level at t = 24 hrs. (% of baseline) ([3]; single dose 50 mg, oral solution): 75 ± 15 % of baseline; LTB4 level at t = 24 hrs. (% of baseline) ([3]; single dose 150 mg, oral solution): 58 ± 18 % of baseline; LTB4 level at t = 24 hrs. (% of baseline) ([3]; single dose 300 mg, oral solution): 36 ± 6.5 % of baseline; LTB4 level at t = 24 hrs. (% of baseline) ([3]; single dose 600 mg, oral solution): 25 ± 8.7 % of baseline; LTB4 level at t = 24 hrs. (% of baseline) ([3]; single dose 1000 mg, oral solution): 23 ± 12 % of baseline; liver weight alteration ([4]; female, CD-1, mouse, 4 days): 9.1%; necropsy findings ([4]; mouse): no gross abnormalities; Tmax (in vivo [5]): ≥ 2 h; IC50 (CYP3A4): > 50 µM; IC50 (CYP2C19): 22 µM; IC50 (CYP2D6): > 50 µM

Reference: patent US8697730B2, “5-lipoxygenase activating protein (FLAP) inhibitor” (Panmira Pharmaceuticals, LLC, priority 2007, dated 2014)
